# In patent US12139477B2, “Compounds, salts thereof and methods for treatment of diseases” (ACADIA PHARMACEUTICALS INC., priority 2017, dated 2024):
# How the values were obtained:
# [1] = target: hERG potassium channel (Homo sapiens, UniProt Q12809); test: hERG manual patch clamp, HEK293 cells (CR-CLE)
# Procedure: Each cell acted as its own control.
# Temperature was measured using a thermistor probe in the recording chamber.
# [2] = target: 5HT2A (Homo sapiens, UniProt P28223); test: Receptor Selection and Amplification (R-SAT) functional assay; format: cell-based; set-up: expressed in transfected cells; host or cells: NIH3T3 cells, pSI mammalian expression vector; settings: NIH3T3 cells; Ki from IC50 by Cheng and Prussoff; read-out: 5-HT2a (pKi) (R-SAT) (converted)
# From the text: Receptor Selection and Amplification (R-SAT) Assays. […] The IC50 determined in the RSAT assay was converted into a Ki value using the method of Cheng and Prussoff, Biochem Pharmacol., 1973 Dec. 1; 22(23):3099-108. pKi is the negative of the log(Ki).
# [3] = target: T1, hERG channel (Homo sapiens, UniProt Q12809); test: hERG assay, whole cell recordings in CHO cells (AVIVA); format: cell-based; settings: CHO cells stably expressing hERG, pH 7.4
# T1 construct: host or cells: CHO cells, stably transfected
# Summary of the method: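 Whole-cell voltage clamp of CHO cells stably expressing hERG, held at −80 mV; steps to +20 mV for 5 s, then −50 mV for 5 s, with tail current measured against a −50 mV baseline, every 12 s. Compounds applied in 4 additions until steady state (max 12 min), vs 0.1% DMSO vehicle baseline.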
# T1 sequence (Q12809 whole entry): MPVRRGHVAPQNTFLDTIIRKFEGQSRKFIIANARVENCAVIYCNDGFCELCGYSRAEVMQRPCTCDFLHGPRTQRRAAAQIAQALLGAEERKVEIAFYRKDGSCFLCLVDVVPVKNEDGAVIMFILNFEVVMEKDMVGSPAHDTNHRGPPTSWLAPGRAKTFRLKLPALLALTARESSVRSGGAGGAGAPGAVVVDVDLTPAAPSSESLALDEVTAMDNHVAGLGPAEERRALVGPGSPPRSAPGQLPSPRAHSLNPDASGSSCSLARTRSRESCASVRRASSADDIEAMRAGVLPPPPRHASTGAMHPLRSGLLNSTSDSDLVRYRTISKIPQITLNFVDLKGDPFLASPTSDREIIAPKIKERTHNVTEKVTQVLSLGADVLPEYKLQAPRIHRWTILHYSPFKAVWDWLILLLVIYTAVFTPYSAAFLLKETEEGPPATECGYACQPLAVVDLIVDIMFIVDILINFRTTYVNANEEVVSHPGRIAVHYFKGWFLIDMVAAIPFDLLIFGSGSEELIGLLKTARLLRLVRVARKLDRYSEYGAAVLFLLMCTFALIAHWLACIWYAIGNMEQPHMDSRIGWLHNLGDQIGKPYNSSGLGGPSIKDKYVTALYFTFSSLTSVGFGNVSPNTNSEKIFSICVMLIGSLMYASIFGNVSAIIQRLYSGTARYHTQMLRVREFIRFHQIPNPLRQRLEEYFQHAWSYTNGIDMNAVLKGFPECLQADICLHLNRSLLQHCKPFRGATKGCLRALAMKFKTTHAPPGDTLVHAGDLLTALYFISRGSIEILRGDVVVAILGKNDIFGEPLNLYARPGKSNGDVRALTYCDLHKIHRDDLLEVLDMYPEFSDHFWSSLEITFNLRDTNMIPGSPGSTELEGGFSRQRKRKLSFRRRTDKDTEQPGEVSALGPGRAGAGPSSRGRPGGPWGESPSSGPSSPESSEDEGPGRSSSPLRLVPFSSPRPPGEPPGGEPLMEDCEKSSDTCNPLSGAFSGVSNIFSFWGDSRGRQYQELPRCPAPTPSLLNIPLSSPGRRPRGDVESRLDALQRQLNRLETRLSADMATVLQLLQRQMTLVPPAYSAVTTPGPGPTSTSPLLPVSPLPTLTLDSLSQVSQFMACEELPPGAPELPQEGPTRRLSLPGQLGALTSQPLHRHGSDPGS
# hERG potassium channel, sequence (Q12809 whole entry): as above
# 5HT2A, sequence (P28223 whole entry): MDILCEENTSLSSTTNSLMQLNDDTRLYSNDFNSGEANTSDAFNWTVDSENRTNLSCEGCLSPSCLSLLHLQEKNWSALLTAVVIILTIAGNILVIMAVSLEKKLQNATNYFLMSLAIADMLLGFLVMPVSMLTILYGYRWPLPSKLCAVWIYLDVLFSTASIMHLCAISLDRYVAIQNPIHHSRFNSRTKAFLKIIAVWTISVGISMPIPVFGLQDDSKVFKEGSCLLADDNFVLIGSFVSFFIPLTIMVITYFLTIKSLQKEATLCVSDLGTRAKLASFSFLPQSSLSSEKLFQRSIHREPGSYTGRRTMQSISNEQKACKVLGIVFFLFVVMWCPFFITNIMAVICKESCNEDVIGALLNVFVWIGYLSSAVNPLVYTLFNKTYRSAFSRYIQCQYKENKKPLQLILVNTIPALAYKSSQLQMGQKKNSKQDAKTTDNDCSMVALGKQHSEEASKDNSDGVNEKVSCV
Structure (SMILES),IC50 [1],Ki [2],inhibition at 1 µM [3]
"CC(C)COc1ccc(CNC(=O)N(Cc2ccc(F)cc2F)C2CCN(C)CC2)cc1 [Example 3, 1-[(2,4-difluorophenyl)methyl]-1-(1-methylpiperidin-4-yl)-3-{[4-(2-methylpropoxy)phenyl]methyl}urea]",500 nM,1.26 nM,33%
"CC(C)Oc1ccc(CNC(=O)N(Cc2ccc(F)cc2F)C2CCN(C)CC2)cc1 [Example 5, 1-[(2,4-difluorophenyl)methyl]-1-(1-methylpiperidin-4-yl)-3-{[4-(propan-2-yloxy)phenyl]methyl}urea]",1800 nM,1 nM,29%
"CN1CCC(N(Cc2ccc(F)cc2F)C(=O)NCc2ccc(OC3CC3)cc2)CC1 [Example 17, 3-[(4-cyclopropoxyphenyl)methyl]-1-[(2,4-difluorophenyl)methyl]-1-(1-methylpiperidin-4-yl)urea]",1800 nM,0.398 nM,32%
